PubChem BioAssay (NCI)
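The concentration for 50% growth inhibition is given as GI50. TGI marks complete inhibition of growth.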

Key:
Experiment in all cases: NCI tumour cell line growth inhibition, 384-well format
[1] = tested on: 786-0 renal
[2] = tested on: A498 renal
[3] = tested on: A549 NSCLC
[4] = tested on: ACHN renal
[5] = tested on: BT-549 breast
[6] = tested on: CAKI-1 renal
[7] = tested on: CCRF-CEM leukemia
[8] = tested on: COLO 205 colon
[9] = tested on: DU-145 prostate
[10] = tested on: EKVX NSCLC
[11] = tested on: HCC-2998 colon
[12] = tested on: HCT-116 colon
[13] = tested on: HCT-15 colon
[14] = tested on: HL-60(TB) leukemia
[15] = tested on: HOP-62 NSCLC
[16] = tested on: HOP-92 NSCLC
[17] = tested on: HS 578T breast
[18] = tested on: HT29 colon
[19] = tested on: IGROV1 ovarian
[20] = tested on: K-562 leukemia
[21] = tested on: KM12 colon
[22] = tested on: LOX IMVI melanoma
[23] = tested on: M14 melanoma
[24] = tested on: MALME-3M melanoma
[25] = tested on: MCF7 breast
[26] = tested on: MDA-MB-231 breast
[27] = tested on: MDA-MB-435 melanoma
[28] = tested on: MDA-MB-468 breast
[29] = tested on: MOLT-4 leukemia
[30] = tested on: NCI-H226 lung
[31] = tested on: NCI-H23 lung
[32] = tested on: NCI-H322M lung
[33] = tested on: NCI-H460 NSCLC
[34] = tested on: NCI-H522 lung
[35] = tested on: NCI/ADR-RES ovarian
[36] = tested on: OVCAR-3 ovarian
[37] = tested on: OVCAR-4 ovarian
[38] = tested on: OVCAR-5 ovarian
[39] = tested on: OVCAR-8 ovarian
[40] = tested on: PC-3 prostate
[41] = tested on: RPMI-8226 leukemia
[42] = tested on: RXF 393 renal
[43] = tested on: SF-268 CNS
[44] = tested on: SF-295 CNS
[45] = tested on: SF-539 CNS
[46] = tested on: SK-MEL-28 melanoma
[47] = tested on: SK-MEL-5 melanoma
[48] = tested on: SK-OV-3 ovarian
[49] = tested on: SN12C renal
[50] = tested on: SNB-19 CNS
[51] = tested on: SNB-75 CNS
[52] = tested on: SW-620 colon
[53] = tested on: T-47D breast
[54] = tested on: TK-10 renal
[55] = tested on: U251 glioblastoma
[56] = tested on: UACC-257 melanoma
[57] = tested on: UACC-62 melanoma
[58] = tested on: UO-31 renal

## O=C1[C@H](Cc2ccc(O)cc2)N2C(=O)CCN(C(=O)NCc3ccccc3)[C@H]2CN1Cc1cccc2ccccc12
[1]
  GI50: 2.76 µM
  TGI: 16.9 µM
[2]
  GI50: 2.9 µM
  TGI: 9.62 µM
[3]
  GI50: 1.83 µM
  TGI: 13.8 µM
[4]
  GI50: 10.7 µM
  TGI: 37.7 µM
[5]
  GI50: 1.28 µM
  TGI: 11.6 µM
[6]
  GI50: 2.15 µM
  TGI: 5.94 µM
[7]
  GI50: 1.33 µM
  TGI: 7.73 µM
[8]
  GI50: 0.662 µM
  TGI: 10.2 µM
[9]
  GI50: 4.25 µM
  TGI: 17.1 µM
[10]
  GI50: 6.96 µM
  TGI: 30.7 µM
[11]
  GI50: 2.1 µM
  TGI: 15.3 µM
[12]
  GI50: 0.738 µM
  TGI: 11.8 µM
[13]
  GI50: 18.9 µM
  TGI: 82.9 µM
[14]
  GI50: 3.98 µM
  TGI: 15 µM
[15]
  GI50: 2.99 µM
  TGI: 11.9 µM
[16]
  GI50: 0.386 µM
  TGI: 1.88 µM
[17]
  GI50: 0.182 µM
  TGI: 0.77 µM
[18]
  GI50: 3.17 µM
  TGI: 15.8 µM
[19]
  GI50: 0.353 µM
  TGI: 2.49 µM
[20]
  GI50: 0.828 µM
  TGI: 14.1 µM
[21]
  GI50: 2.82 µM
  TGI: 13.6 µM
[22]
  GI50: 1.15 µM
  TGI: 5.36 µM
[23]
  GI50: 2.78 µM
  TGI: 12.4 µM
[24]
  GI50: 1.24 µM
  TGI: 5.89 µM
[25]
  GI50: 5.44 µM
  TGI: 20 µM
[26]
  GI50: 0.556 µM
  TGI: 12 µM
[27]
  GI50: 4.85 µM
  TGI: 17.7 µM
[28]
  GI50: 3.46 µM
  TGI: 15.6 µM
[29]
  GI50: 0.319 µM
  TGI: 1.19 µM
[30]
  GI50: 2.95 µM
  TGI: 11.1 µM
[31]
  GI50: 4.97 µM
  TGI: 17.7 µM
[32]
  GI50: 3.72 µM
  TGI: 19.1 µM
[33]
  GI50: 0.858 µM
  TGI: 5.2 µM
[34]
  GI50: 0.518 µM
  TGI: 12.6 µM
[35]
  GI50: > 100 µM
  TGI: > 100 µM
[36]
  GI50: 0.632 µM
  TGI: 6.89 µM
[37]
  GI50: 2.92 µM
  TGI: 17.2 µM
[38]
  GI50: 1.44 µM
  TGI: 9.66 µM
[39]
  GI50: 1.35 µM
  TGI: 11.9 µM
[40]
  GI50: 1.74 µM
  TGI: 9.23 µM
[41]
  GI50: 2.03 µM
  TGI: 12.3 µM
[42]
  GI50: 3.22 µM
  TGI: 14.6 µM
[43]
  GI50: 0.287 µM
  TGI: 0.792 µM
[44]
  GI50: 3.79 µM
  TGI: 13.7 µM
[45]
  GI50: 0.564 µM
  TGI: 9.79 µM
[46]
  GI50: 1.98 µM
  TGI: 11.4 µM
[47]
  GI50: 1.33 µM
  TGI: 4.11 µM
[48]
  GI50: 1.66 µM
  TGI: 10.3 µM
[49]
  GI50: 2.78 µM
  TGI: 16.8 µM
[50]
  GI50: 0.678 µM
  TGI: 21.8 µM
[51]
  GI50: 0.421 µM
  TGI: 2.23 µM
[52]
  GI50: 7.63 µM
  TGI: > 100 µM
[53]
  GI50: 0.441 µM
  TGI: 3.68 µM
[54]
  GI50: 6.57 µM
  TGI: 24.1 µM
[55]
  GI50: 0.578 µM
  TGI: 11.2 µM
[56]
  GI50: 3.45 µM
  TGI: 14 µM
[57]
  GI50: 1.35 µM
  TGI: 8.06 µM
[58]
  GI50: 16.1 µM
  TGI: 33.3 µM
